The values below come from patent US20030157516A1, “G protein coupled receptor” (priority 2000, published 2003).

Where “and” joins values, the source holds several entries; their conditions need not be identical. Equal values may be shown once. Read-outs that look alike come from different tables or passages of the source.

The target in experiment [1] is T1, adenine binding rat receptor (Rattus norvegicus, UniProt Q7TN49).
T1 construct: expressed in transfected cells; host or cells: CHO cells, transient, lipofectamine PLUS
T1 sequence (Q7TN49 1-304): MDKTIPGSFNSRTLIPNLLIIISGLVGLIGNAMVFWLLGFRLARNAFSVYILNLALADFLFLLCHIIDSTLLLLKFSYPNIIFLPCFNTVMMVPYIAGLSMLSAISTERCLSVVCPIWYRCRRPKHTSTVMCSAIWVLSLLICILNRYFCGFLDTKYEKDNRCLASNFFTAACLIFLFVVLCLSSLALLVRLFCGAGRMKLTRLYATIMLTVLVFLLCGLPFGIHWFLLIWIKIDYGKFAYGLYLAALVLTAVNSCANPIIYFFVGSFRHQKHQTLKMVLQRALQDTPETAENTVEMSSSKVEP
Put plainly: [3H]adenine competition binding on CHO membranes transiently transfected. Particulars: transfected cells, 15 nM [3H]adenine. Here is the method: The membranes were prepared as total particulate fractions. The cell lines were cultured to […] on 145 mm petri dishes and treated with 5 mM sodium butyrate, 24 hours before collection. The culturing medium was removed and the cells were washed twice with ice cold phosphate buffered saline (PBS without Ca^2+ and Mg^2+), scraped from the plates in 50 mM Tris-HCl buffer, pH 7.4, and collected by centrifugation (10 minutes at 16,000 RPM at 4° C.). The cell pellet was re-suspended in hypotonic 5 mM Tris-HCl buffer, pH 7.4, and homogenized with an Ultra Turrax homogenizer (Janker Kunkel, Germany). The homogenate was centrifuged at 18,000 RPM for 20 minutes at 4° C. The final pellet was re-suspended in 50 mM Tris-HCl buffer, pH 7.4 and stored in aliquots at −70° C. A protein determination was performed using the Bradford protein assay (Biorad, Germany) using bovine serum albumin (BSA) as standard.
A) Methods—[3H]Adenine binding experiments were performed to characterize wild type cell lines before transfection as well as transiently and permanently transfected cell lines. Membranes were thawed on ice and diluted in 50 mM HEPES buffer, pH 7.4 supplemented with 10 mM MgCl2 and 1 mM EGTA. […] Both assays were carried out in a final volume of 500 μl, using 18 μg of membrane protein for the transfected CHO cells and 30 μg of membrane protein for the wild type CHO cells for the saturation binding. For competition binding experiments, 15 and 50 μg of membrane protein was used for the transfected and wild type cells, respectively. The reaction was terminated by rapid filtration through Whatman GF/B filters using a Brandel multi-channel cell harvester (96 wells). The filters were washed three times with 3 ml ice cold 50 mM HEPES buffer, pH 7.4, transferred to liquid scintillation vials and 3 ml of scintillation fluid (Ultima Gold MV, Packard, Netherlands) was added. Samples were counted in a β-scintillation counter after at least 6 hours to permit the glass fiber filters to become uniformly translucent.

In experiment [2] the target is T1, adenine binding rat receptor. Put plainly: cAMP measurements on CHO cells transiently transfected (forskolin stimulated). Type of experiment: cell-based. As to conditions: inhibition of forskolin stimulated cAMP. The procedure:
a) Methods—For transiently transfected CHO cells, cAMP measurements were performed using the direct RIA kit from NEN (Belgium).
The cells were collected from 50 mm petri dishes by adding 1 ml 0.04% EDTA and re-suspending them in PBS (without Ca^2+ and Mg^2+). The cells were then centrifuged for 5 minutes at 1,500 RPM, the supernatant was removed and the pellet was re-suspended in stimulation buffer (provided by the supplier, NEN). The cells were counted and 50 μl was added to each well of a 96-well flashplate at a density of 10^6 cells/well. A standard curve of cAMP was prepared in stimulation buffer, covering a range from 10 to 1,000 nM, and 50 μl was added to the flashplate.
The compounds were diluted in PBS with forskolin (at 50 μM), and 50 μl of the ligand, 2 times the final concentration, was added to the cells and incubated for 20 minutes at 37° C. After the 20 minutes incubation, 100 μl of the [^125I]cAMP tracer (2 μCi) was added to each well, resulting in a final volume of 200 μl/well. The plate was left at room temperature, until being counted in the Topcount™ microplate scintillation counter (Packard, Netherlands). The sigmoid concentration response curves (duplicate points) were analyzed using the GraphPad Prism program (GraphPad Software, Calif., USA).
a) Methods: Two days before the experiment the cells were seeded out in a 96 well plate at a density required for approximately 90% confluence at the day of the experiment. After removal of the growth medium, the cells were washed twice with a controlled salt solution (CSS) containing 25 mM Tris-HCl, pH 7.4, 120 mM NaCl, 5.4 mM KCl, 0.8 mM MgCl2, 1.8 mM CaCl2, 15 mM glucose and 15 mg/l phenol red, with an addition of a phosphodiesterase inhibitor IBMX (3-isobutyl-1-methylxanthine) in a concentration of 1 mM and […]. Basal cAMP levels were determined in CSS containing these additives and maximally stimulated cAMP levels were determined in the presence of 50 μM forskolin. For testing agonistic activity, the compounds were incubated with the cells for 20 minutes at 37° C. The reaction was stopped by addition of ice cold HClO4 (1N) and stored at −20° C. After thawing the mixtures were neutralized with an equivalent amount of phosphate buffered KOH, left at 4° C. during 30 minutes to allow the salts to precipitate and centrifuged at 2,000 RPM for 5 minutes at 4° C.
For the quantitative determination of the cAMP levels, a 96-well Flashplate radioimmunoassay kit from NEN was used, according to the protocol of the supplier. The sigmoid concentration response curves (duplicate points) were analyzed using the GraphPad Prism program.

[3] abbreviates: direct assay, 0.5% hiFCS, read-out: pEC50 (converted).
Setting [4] is: direct assay, 2% hiFCS, read-out: pEC50 (converted).
Setting [5] is: indirect assay, 0.5% hiFCS, read-out: pEC50 (converted).

A word on the Ki: it is a measure of affinity in units of concentration, obtained from inhibition or displacement. A high value points to lower affinity. For orientation: pIC50 means the IC50 on a negative log10 scale, so that one unit is a factor of ten. For orientation: IC50 means the concentration needed to halve the response being measured. A low value points to greater potency.

In experiment [1] (mean of n experiments), `Nc1ncnc2c1ncn2[C@@H]1O[C@H](COP(=O)(O)O)[C@@H](O)[C@H]1O` [AMP] registered a Ki of 24500 nM and a negative logarithm of the IC50 (pIC50) of 4.41. In experiment [1] (single experiments), the Ki is 31900 nM and 20800 nM and 21200 nM; the pIC50 was 4.29 and 4.47 and 4.46.
Take `Nc1ncnc2nc[nH]c12` [Adenine, adenine]: the 50% inhibitory concentration (IC50) in experiment [1] (mean of n experiments) was 28.2 nM; in experiment [1] (single experiments), 17.4 nM and 36.3 nM and 30.9 nM and 33.1 nM. Also, the Ki was 18 nM in experiment [1] (mean of n experiments); 11 nM and 22 nM and 19 nM and 20 nM in experiment [1] (single experiments). Further, the EC50 was 20.9 nM in experiment [2] (setting [3]); 7.08 nM in experiment [2] (setting [4]); 3.31 nM in experiment [2] (setting [5]); 110 nM in experiment [2] (indirect assay, 2% hiFCS, read-out: pEC50 (converted)); about 15 nM in experiment [2] (transiently transfected cells, read-out: EC50).
On to `Cn1cnc2ncnc-2c1N` [1-Methyladenine], for which the IC50 is 7080 nM in experiment [1] (mean of n experiments); 6170 nM and 9770 nM and 5750 nM in experiment [1] (single experiments). Moreover, the Ki in experiment [1] (mean of n experiments) is 4390 nM; in experiment [1] (single experiments) it was 3790 nM and 6060 nM and 3570 nM. In addition, the EC50 in experiment [2] (setting [3]) is 4900 nM; in experiment [2] (setting [4]) it was 6310 nM; in experiment [2] (setting [5]), 7940 nM. Besides, the pEC50 entry in experiment [2] (indirect assay, 2% hiFCS) is listed as “no fit”.
